Reference: patent US10597405B2, “Chemical compounds” (ASTRAZENECA AB, priority 2017, dated 2020)

How the values were obtained:
[1] = In vivo studies: oral bioavailability and clearance; details: rat
KRasG12C [2] = target: T1, KRasG12C (Homo sapiens, UniProt P01116, G12C); assay: KRasG12C functional assay (HTRF nucleotide exchange / Raf RBD binding); assay type: biochemical; details: GDP loaded biotinylated KRasG12C, samples incubated 4 hrs, FRET readout; single experiment or average of two or more
T1 construct: biotin (biotinylated); made in house
How it was run: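 Biotinylated GDP-loaded KRasG12C exchange driven by 0.08 μM SOS with 0.6 μM GTPγS, read by HTRF between europium and XL665 as active KRas binds 20 nM GST-Raf RBD. Buffer: 20 mM HEPES pH 7.5, 5 mM MgCl2, 150 mM NaCl, 0.01% Tween 20. IC50 from normalised FRET dose-response fits.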

KRasG12C [3] = target: T1, KRasG12C; assay: KRasG12C Mass Spectrometry adducting assay; assay type: binding; details: 10 μM test compound, 4 μM KRasG12C, 4 hours reaction; single experiment or average of two or more
Description: KRasG12C Mass Spectrometry Adducting Assay
Enzyme solutions were prepared in assay buffer containing 20 mM HEPES (pH 7.5), 5 mM MgCl2, and 150 mM NaCl. 4 μM GDP loaded biotinylated KRas^G12C was prepared in assay buffer and 50 μl added into each well of a 96 well polypropylene assay plate (Greiner, #651201) containing 500 nl of 1 mM test compounds (final concentration 10 μM), this was allowed to react for 4 hours before the addition of 50 μl 1% Formic acid to quench the reaction. The plate was sealed before reading on a Xevo G2 QTOF (Waters) and Acquity LC system (Waters). 10 μl of sample was injected onto a Xbridge BEH300; C4; 3.5 um; 2.1×50 mm column (Waters) running a 3 minute gradient. Blank samples were run in between each test sample.
Data was analysed in Mass Lynx software (Waters), the Total ion count (TIC) trace was used and the eluted protein peak data combined. Using the combined spectrum the data was deconvoluted using MaxEnt1 method. The peak area for apo-protein KRas^G12C (APO) and KRAS+relative cmpd mass (adduct) were measured, and a percentage adduct was calculated using the following calculation: Percent adduct=100*(area of adduct peak/(sum of APO+adduct peaks)

[4] = Incubations with hepatic systems (turnover); assay type: in vitro ADME; details: result in words
[5] = Reactivity to glutathione (co-incubation with glutathione in buffer)

Row | Structure (SMILES) | IC50 (KRasG12C [2]) [nM] | KRasG12C M.S. Binding Mean adduct % (KRasG12C [3]) [%] | bioavailability ([1]; po, species not given, read-out: F value (oral bioavailability)) [%] | clearance [1] [mL/min/kg] | F (oral bioavailability), in words ([1]; result in words) | turnover in incubations with hepatic systems [4] | half-life [5] [h]
1 | C=CC(=O)N1CCN2c3c(cnc4c(C)c(-c5c(O)cccc5F)c(Cl)cc34)OC[C@H]2C1 (single isomer, unassigned) [Compound 39] | 97 | 94 | – | 6 | complete | – | –
2 | C=CC(=O)N1C[C@@H]2COc3cnc4c(C)c(-c5c(O)cccc5F)c(Cl)cc4c3N2C[C@H]1C (single isomer, unassigned) [Compound 40] | 62 | 96 | 43 | – | – | – | –
3 | C=CC(=O)N1CCN2c3c(cnc4c(F)c(-c5c(O)cccc5F)c(Cl)cc34)N(C)C(=O)[C@H]2C1 (single isomer, unassigned) [Example 17, 3-acryloyl-11-chloro-9-fluoro-10-(2-fluoro-6-hydroxyphenyl)-6-methyl-2,3,4,4a-tetrahydro-1H-pyrazino[1′,2′:4,5]pyrazino[2,3-c]quinolin-5(6H)-one] | 18 | 100 | – | – | – | low turnover | 9.75
4 | C=CC(=O)N1C[C@@H]2C(=O)N(C)c3cnc4c(F)c(-c5c(O)cccc5F)c(Cl)cc4c3N2C[C@H]1C (single isomer, unassigned) [Example 22] | 5 | 100 | – | – | – | low turnover | 15.5
5 | C=CC(=O)N1CCN2c3c(cnc4cc(-c5c(O)cccc5F)c(Cl)cc34)N(CCN(C)C)C[C@H]2C1 [Example 12, 1-((4aS)-11-Chloro-6-(2-(dimethylamino)ethyl)-10-(2-fluoro-6-hydroxyphenyl)-1,2,4,4a,5,6-hexahydro-3H-pyrazino[1′,2′:4,5]pyrazino[2,3-c]quinolin-3-yl)prop-2-en-1-one] | 231 | 75 | – | – | – | – | –
6 | C=CC(=O)N1CCN2c3c(cnc4cc(-c5c(O)cccc5F)c(Cl)cc34)N(C)C(=O)[C@H]2C1 [Example 15, (4aR)-3-Acryloyl-11-chloro-10-(2-fluoro-6-hydroxyphenyl)-6-methyl-2,3,4,4a-tetrahydro-1H-pyrazino[1′,2′:4,5]pyrazino[2,3-c]quinolin-5(6H)-one] | 145 | 100 | – | – | – | – | –
7 | C=CC(=O)N1CCN2c3c(cnc4cc(-c5c(O)cccc5F)c(Cl)cc34)N(C)C(=O)[C@@H]2C1 [Example 16, (4aS)-3-Acryloyl-11-chloro-10-(2-fluoro-6-hydroxyphenyl)-6-methyl-2,3,4,4a-tetrahydro-1H-pyrazino[1′,2′:4,5]pyrazino[2,3-c]quinolin-5(6H)-one] | 2700 | 18 | – | – | – | – | –

Now from value to molecule, other results behind:

Row | IC50 (KRasG12C [2]) [nM] | KRasG12C M.S. Binding Mean adduct % (KRasG12C [3]) [%] | bioavailability ([1]; po, species not given, read-out: F value (oral bioavailability)) [%] | Structure (SMILES) | clearance [1] [mL/min/kg] | F (oral bioavailability), in words ([1]; result in words) | turnover in incubations with hepatic systems [4] | half-life [5] [h]
8 | 135 | 81 | – | C=CC(=O)N1CCN2c3c(nnc4cc(-c5c(O)cccc5F)c(Cl)cc34)OC[C@H]2C1 [Example 10, 1-((4aR)-11-Chloro-10-(2-fluoro-6-hydroxyphenyl)-1,2,4a,5-tetrahydropyrazino[1′,2′:4,5][1,4]oxazino[2,3-c]cinnolin-3(4H)-yl)prop-2-en-1-one] | – | – | – | –
9 | 47 | 93 | – | C=CC(=O)N1C[C@@H]2COc3cnc4cc(-c5c(O)cccc5F)c(Cl)cc4c3N2C[C@H]1C [Example 11, 1-[(2R,4aR)-11-Chloro-10-(2-fluoro-6-hydroxyphenyl)-2-methyl-1,2,4a,5-tetrahydropyrazino[1′,2′:4,5][1,4]oxazino[2,3-c]quinolin-3(4H)-yl]prop-2-en-1-one] | – | – | – | –
10 | 387 | 86 | – | C=CC(=O)N1CCN2c3c(cnc4cc(-c5c(O)cccc5F)c(Cl)cc34)NC[C@H]2C1 [Example 13, 1-((4aS)-11-Chloro-10-(2-fluoro-6-hydroxyphenyl)-1,2,4,4a,5,6-hexahydro-3H-pyrazino[1′,2′:4,5]pyrazino[2,3-c]quinolin-3-yl)prop-2-en-1-one] | – | – | – | –
11 | 132 | 91 | – | C=CC(=O)N1CCN2c3c(cnc4cc(-c5c(O)cccc5F)c(Cl)cc34)N(C)C[C@H]2C1 [Example 14, 1-((4aS)-11-chloro-10-(2-fluoro-6-hydroxyphenyl)-6-methyl-1,2,4,4a,5,6-hexahydro-3H-pyrazino[1′,2′:4,5]pyrazino[2,3-c]quinolin-3-yl)prop-2-en-1-one] | – | – | – | –
